This is an account of results in US20140302113A1, “SYSTEMS, DEVICES, AND METHODS FOR EMBEDDING DRUG MOLECULES INTO MEDICAL CATHETERS OR TUBES” (priority 2011, published 2014).

Where two headings read alike, the source gives them in different places.

The conditions of data set [1]: solution with pH about 7.4; cited from earlier work.
The format of data set [2] is physicochemical. Conditions: loaded catheter in Example 4. How it is done: 0.16 g of chlorhexidine diacetate was dissolved in 15.8 gram distilled water in a glass jar to form a clear solution. A section of a silicone coated latex Foley catheter (Bardia Foley Catheter, 16 Fr. Reorder No. 123516A, Lot MYUDR067), approximately 16 cm long, was placed into the jar and completely submerged in the solution. 0.08 g of a 10 wt % NaOH solution was added into the loading solution to increase the pH. […] The jar was closed with a cap and placed into an oven with temperatures cycling between about 62° C. and 68° C. The jar was kept in the oven for the next 120 hours and was shaken occasionally during the 120 hour heat treatment period.
The release rates of chlorhexidine from the loaded catheter in Example 4 were measured as follows. The catheter section was thoroughly washed and cut into two pieces, Section A (7.774 cm) and Section B (8.055 cm). Each section was submerged into 17 mL of a 0.15 M pH7.4 phosphate buffer held in a glass vial, which was placed into a 37° C. water bath. At each time point, the catheter section was retrieved from the glass vial, dried, and placed into another glass vial containing 17 mL of a fresh pH 7.4 phosphate buffer. The vial was then placed into the 37° C. water bath. The amount of chlorhexidine in the solution remaining in the first vial was measured with HPLC. This process was repeated at each time point. The average flux of chlorhexidine released from the catheter wall during the period between the current and previous time points was calculated by dividing the total amount of chlorhexidine in the solution (microgram) by the total surface area of the catheter section (cm^2) and by the length of time between the two time points (hour). The result is the amount of chlorhexidine released per square centimeter of the catheter wall per hour. The average chlorhexidine release flux and the average amount of chlorhexidine released from each square centimeter of the catheter wall per 24 hour period are listed in Table 3.

The conditions of data set [3]: Foley catheter of Example 6. Here is the method: The tip and the discharge end were discarded because they would not be expected to touch the patient's mucosa during the catheter use. […] The holes on both ends of each of the four catheter sections were blocked. Each of the four catheter sections was placed into a glass scintillation vial. A 0.15 M PBS solution with pH 7.4 was used as release medium. 20.7 mL of the medium was added into the vial to submerge the entire catheter section. The vial was closed tightly and a vinyl tape was wrapped around the cap to prevent solvent evaporation. The vial was placed into a 37° C. water bath with no shaking (mimicking human use), and the time was set as t=0. […] The catheter sections was removed from the vial, dried with a tissue, and placed into a new vial with the same amount of release medium. The new vial was then put back into the same water bath. This process was repeated at each time point. The samples were analyzed with HPLC.

For the compound `CC(=O)O.CC(=O)O.NC(=N\CCCCCC/N=C(N)/N=C(\N)Nc1ccc(Cl)cc1)/N=C(\N)Nc1ccc(Cl)cc1` [Chlorhexidine diacetate, chlorhexidine diacetate], in data set [1], the “concentration that can be dissolved in water” value is “higher than 1.5 wt %”.
On to `[H]/N=C(\N/C(=N/[H])NCCCCCCNC(=N)NC(=N)Nc1ccc(Cl)cc1)Nc1ccc(Cl)cc1` [Chlorhexidine, chlorhexidine], for which the “period with more than 1 microgram of chlorhexidine released from each square centimeter of wall surface per 24 hour” value in data set [2] was “at least 11 days”. Also, the “Average Chlorhexidine Amount/cm^2/24 hr” value in data set [2] (time 0.17 day) was 218 micrograms; in data set [2] (time 0.5 day), 43.9 micrograms; in data set [2] (time 1.1 day), 21.5 micrograms; in data set [2] (time 1.6 day), 13.1 micrograms; in data set [2] (time 2 day), 10.2 micrograms; in data set [2] (time 2.5 day) it was 4.5 micrograms. Further, the “Average Chlorhexidine Amount/cm^2/24 hr” value in data set [2] (time 3 day) is reported as 4.3 micrograms; in data set [2] (time 3.5 day), 2.6 micrograms; in data set [2] (time 4.0 day), 3.3 micrograms; in data set [2] (time 4.5 day), 3.2 micrograms; in data set [2] (time 5 day), 3.2 micrograms; in data set [2] (time 5.5 day), 2.9 micrograms. Also, the “Average Chlorhexidine Amount/cm^2/24 hr” value amounted to 2.6 micrograms in data set [2] (time 6 day); 2.2 micrograms in data set [2] (time 6.5 day); 1.8 micrograms in data set [2] (time 7 day); 1.2 micrograms in data set [2] (time 8 day); 1.4 micrograms in data set [2] (time 8.5 day); 1.7 micrograms in data set [2] (time 9.0 day). Moreover, the “Average Chlorhexidine Amount/cm^2/24 hr” value is given as 2.0 micrograms in data set [2] (time 10.0 day), 1.1 micrograms in data set [2] (time 11 day) and 0.8 micrograms in data set [2] (time 12 day). The “Average Released Chlorhexidine Amount/cm^2/24 hr” value in data set [3] (time 0.17 day) turned out to be 2.2 micrograms; in data set [3] (time 0.5 day), 3.8 micrograms; in data set [3] (time 1.0 day), 2.8 micrograms; in data set [3] (time 1.5 day), 3.4 micrograms; in data set [3] (time 2 day), 3.2 micrograms; in data set [3] (time 2.5 day), 2.4 micrograms. Further, the “Average Released Chlorhexidine Amount/cm^2/24 hr” value in data set [3] (time 3.1 day) is given as 1.6 micrograms; in data set [3] (time 3.6 day), 1.5 micrograms; in data set [3] (time 4 day), 1.7 micrograms; in data set [3] (time 4.5 day), 1.0 micrograms; in data set [3] (time 5 day), 1.3 micrograms; in data set [3] (time 5.5 day), 1.0 micrograms. Besides, the “Average Released Chlorhexidine Amount/cm^2/24 hr” value was determined as 0.6 micrograms in data set [3] (time 6.5 day); 0.7 micrograms in data set [3] (time 7 day); 0.6 micrograms in data set [3] (time 7.5 day); 0.5 micrograms in data set [3] (time 8 day); 0.5 micrograms in data set [3] (time 9 day); 0.5 micrograms in data set [3] (time 9.5 day). The “Average Released Chlorhexidine Amount/cm^2/24 hr” value in data set [3] (time 10 day) was determined as 0.5 micrograms; in data set [3] (time 11 day) it was 0.5 micrograms; in data set [3] (time 12 day), 0.5 micrograms; in data set [3] (time 14 day) it was 0.4 micrograms.
